{
  "source": "ChEMBL document CHEMBL1649497",
  "about": "“Comparison of the pharmacodynamics of biapenem in bronchial epithelial lining fluid in healthy volunteers given half-hour and three-hour intravenous infusions” (Antimicrob Agents Chemother, 2009)",
  "key": {"[1]": {"assay": "T>MIC in healthy human at epithelial lining fluid MIC of 4 ug/ml and compound dose of 0.3 […], iv after 3 hrs", "type": "functional"}, "[2]": {"assay": "T>MIC in healthy human at epithelial lining fluid MIC of 2 ug/ml and compound dose of 0.3 […], iv after 0.5 hrs", "type": "functional"}, "[3]": {"assay": "T>MIC in healthy human at epithelial lining fluid MIC of 2 ug/ml and compound dose of 0.3 […], iv after 3 hrs", "type": "functional"}, "[4]": {"assay": "T>MIC in healthy human at epithelial lining fluid MIC of 1 ug/ml and compound dose of 0.3 […], iv after 0.5 hrs", "type": "functional"}, "[5]": {"assay": "T>MIC in healthy human at epithelial lining fluid MIC of 1 ug/ml and compound dose of 0.3 […], iv after 3 hrs", "type": "functional"}, "[6]": {"assay": "T>MIC in healthy human at epithelial lining fluid MIC of 0.5 ug/ml and compound dose of 0.3 […], iv after 0.5 hrs", "type": "functional"}, "[7]": {"assay": "T>MIC in healthy human at epithelial lining fluid MIC of 0.5 ug/ml and compound dose of 0.3 […], iv after 3 hrs", "type": "functional"}, "[8]": {"assay": "T>MIC in healthy human at epithelial lining fluid MIC of 0.5 ug/ml and compound dose of 0.3 […], iv after […] hrs", "type": "functional"}, "[9]": {"assay": "T>MIC in healthy human at epithelial lining fluid MIC of 0.25 ug/ml and compound dose of 0.3 […], iv after 3 hrs", "type": "functional"}, "[10]": {"assay": "Cmax in plasma of healthy human at 0.3 […], iv after 0.5 hrs", "type": "ADME, organism-based", "set-up": "route intravenous"}, "[11]": {"assay": "Cmax in plasma of healthy human at 0.3 […], iv after 3 hrs", "type": "ADME, organism-based", "set-up": "route intravenous"}, "[12]": {"assay": "Tmax in plasma of healthy human at 0.3 […], iv after 0.5 hrs", "type": "ADME, organism-based"}, "[13]": {"assay": "Tmax in plasma of healthy human at 0.3 […], iv after 3 hrs", "type": "ADME, organism-based"}, "[14]": {"assay": "AUC in plasma of healthy human at 0.3 […], iv after 0.5 hrs", "type": "ADME, organism-based", "set-up": "time < 0.5 hr, route intravenous"}, "[15]": {"assay": "AUC in plasma of healthy human at 0.3 […], iv after 3 hrs", "type": "ADME, organism-based", "set-up": "time < 3 hr, route intravenous"}, "[16]": {"assay": "Cmax in epithelial lining fluid of healthy human at 0.3 […], iv after 0.5 hrs", "type": "ADME, organism-based", "set-up": "route intravenous"}, "[17]": {"assay": "Cmax in epithelial lining fluid of healthy human at 0.3 […], iv after 3 hrs", "type": "ADME, organism-based", "set-up": "route intravenous"}, "[18]": {"assay": "Tmax in epithelial lining fluid of healthy human at 0.3 […], iv after 0.5 hrs", "type": "ADME, organism-based"}, "[19]": {"assay": "Tmax in epithelial lining fluid of healthy human at 0.3 […], iv after 3 hrs", "type": "ADME, organism-based"}, "[20]": {"assay": "AUC in epithelial lining fluid of healthy human at 0.3 […], iv after 0.5 hrs", "type": "ADME, organism-based", "set-up": "time < 0.5 hr, route intravenous"}, "[21]": {"assay": "AUC in epithelial lining fluid of healthy human at 0.3 […], iv after 3 hrs", "type": "ADME, organism-based", "set-up": "time < 3 hr, route intravenous"}, "[22]": {"assay": "Drug level in epithelial lining fluid of healthy human at 0.3 […], iv after 0.5 hrs", "type": "ADME, organism-based", "conditions": "read-out: Drug uptake"}, "[23]": {"assay": "Drug level in epithelial lining fluid of healthy human at 0.3 […], iv after 3 hrs", "type": "ADME, organism-based", "conditions": "read-out: Drug uptake"}, "[24]": {"assay": "T>MIC in healthy human at plasma MIC of 4 ug/ml and compound dose of 0.3 […], iv after 0.5 hrs", "type": "functional"}, "[25]": {"assay": "T>MIC in healthy human at plasma MIC of 4 ug/ml and compound dose of 0.3 […], iv after 3 hrs", "type": "functional"}, "[26]": {"assay": "T>MIC in healthy human at plasma MIC of 2 ug/ml and compound dose of 0.3 […], iv after 0.5 hrs", "type": "functional"}, "[27]": {"assay": "T>MIC in healthy human at plasma MIC of 2 ug/ml and compound dose of 0.3 […], iv after 3 hrs", "type": "functional"}, "[28]": {"assay": "T>MIC in healthy human at plasma MIC of 1 ug/ml and compound dose of 0.3 […], iv after 0.5 hrs", "type": "functional"}, "[29]": {"assay": "T>MIC in healthy human at plasma MIC of 1 ug/ml and compound dose of 0.3 […], iv after 3 hrs", "type": "functional"}, "[30]": {"assay": "T>MIC in healthy human at plasma MIC of 0.5 ug/ml and compound dose of 0.3 […], iv after 0.5 hrs", "type": "functional"}, "[31]": {"assay": "T>MIC in healthy human at plasma MIC of 0.5 ug/ml and compound dose of 0.3 […], iv after 3 hrs", "type": "functional"}, "[32]": {"assay": "T>MIC in healthy human at plasma MIC of 0.25 ug/ml and compound dose of 0.3 […], iv after 0.5 hrs", "type": "functional"}, "[33]": {"assay": "T>MIC in healthy human at plasma MIC of 0.25 ug/ml and compound dose of 0.3 […], iv after 3 hrs", "type": "functional"}, "[34]": {"assay": "T>MIC in healthy human at epithelial lining fluid MIC of 4 ug/ml and compound dose of 0.3 […], iv after 0.5 hrs", "type": "functional"}},
  "data": [
    {"smiles": "C[C@@H](O)[C@H]1C(=O)N2C(C(=O)[O-])=C(SC3Cn4cnc[n+]4C3)[C@H](C)[C@H]12", "note": "(some centres undefined) [BIAPENEM]", "values": [
      {"measurement": "fT>MIC", "setting": "[1]", "result": 5.1, "unit": "%"},
      {"measurement": "fT>MIC", "setting": "[2]", "result": 5.8, "unit": "%"},
      {"measurement": "fT>MIC", "setting": "[3]", "result": 17.4, "unit": "%"},
      {"measurement": "fT>MIC", "setting": "[4]", "result": 15.5, "unit": "%"},
      {"measurement": "fT>MIC", "setting": "[5]", "result": 29.1, "unit": "%"},
      {"measurement": "fT>MIC", "setting": "[6]", "result": 25.5, "unit": "%"},
      {"measurement": "fT>MIC", "setting": "[7]", "result": 41.4, "unit": "%"},
      {"measurement": "fT>MIC", "setting": "[8]", "result": 34.6, "unit": "%"},
      {"measurement": "fT>MIC", "setting": "[9]", "result": 52.2, "unit": "%"},
      {"measurement": "Cmax", "setting": "[10]", "result": 18.1, "unit": "µg/mL"},
      {"measurement": "Cmax", "setting": "[11]", "result": 6.8, "unit": "µg/mL"},
      {"measurement": "Tmax", "setting": "[12]", "result": 0.5, "unit": "h"},
      {"measurement": "Tmax", "setting": "[13]", "result": 3, "unit": "h"},
      {"measurement": "AUC at 0.5 h", "setting": "[14]", "result": 25, "unit": "µg·h/mL"},
      {"measurement": "AUC at 3 h", "setting": "[15]", "result": 25.4, "unit": "µg·h/mL"},
      {"measurement": "Cmax", "setting": "[16]", "result": 2.35, "unit": "µg/mL"},
      {"measurement": "Cmax", "setting": "[17]", "result": 4.36, "unit": "µg/mL"},
      {"measurement": "Tmax", "setting": "[18]", "result": 1.5, "unit": "h"},
      {"measurement": "Tmax", "setting": "[19]", "result": 1.8, "unit": "h"},
      {"measurement": "AUC at 0.5 h", "setting": "[20]", "result": 6.4, "unit": "µg·h/mL"},
      {"measurement": "AUC at 3 h", "setting": "[21]", "result": 13.3, "unit": "µg·h/mL"},
      {"measurement": "concentration at 0.5 h", "setting": "[22]", "result": 3.48, "unit": "µg/mL"},
      {"measurement": "concentration at 3 h", "setting": "[23]", "result": 1.33, "unit": "µg/mL"},
      {"measurement": "fT>MIC", "setting": "[24]", "result": 12.6, "unit": "%"},
      {"measurement": "fT>MIC", "setting": "[25]", "result": 22.3, "unit": "%"},
      {"measurement": "fT>MIC", "setting": "[26]", "result": 21.1, "unit": "%"},
      {"measurement": "fT>MIC", "setting": "[27]", "result": 34.3, "unit": "%"},
      {"measurement": "fT>MIC", "setting": "[28]", "result": 31.9, "unit": "%"},
      {"measurement": "fT>MIC", "setting": "[29]", "result": 43.8, "unit": "%"},
      {"measurement": "fT>MIC", "setting": "[30]", "result": 43.1, "unit": "%"},
      {"measurement": "fT>MIC", "setting": "[31]", "result": 53.7, "unit": "%"},
      {"measurement": "fT>MIC", "setting": "[32]", "result": 53.5, "unit": "%"},
      {"measurement": "fT>MIC", "setting": "[33]", "result": 64.5, "unit": "%"},
      {"measurement": "fT>MIC", "setting": "[34]", "result": 0, "unit": "%"}
    ]}
  ]
}
